Assays:
Assay type in all cases: functional, Homo sapiens
[1] = test system: U2OS; assay: (§1) Here: values are normalized to the negative (DMSO; defined as 0% autophagy induction) and positive (250nM Torin1; mTOR inhibitor; defined as maximal inducer of autophagy = 100%) control compounds and represented as % of autophagy induction. […] The impact of autophagy induction on cells is complex and depends on the affected target. As such, the magnitude of a phenotype may not be equally mirrored in the %-value of autophagy induction and vice versa. The dynamics of the induction may indicate the mode of activation: e.g. activation via phosphorylation or a signaling cascade may occur fast, while activation via transcription factors may take considerably longer. […] Of note, treatment concentrations may be sub-optimal for specific compounds, leading to false negative annotations.; conditions: Culturing Media DMEM, 1 % Penicillin/Streptomycin, 10% Fetal bovin serum Add-On: No, Screening Media Control DMEM, Screening Media Samples DMEM
[2] = test system: U2OS; assay: as §1; conditions: Culturing Media DMEM, 1 % Penicillin/Streptomycin, 10% Fetal bovin serum Add-On: No, Screening Media Control DMEM, Screening Media Samples DMEM; remark: listed apart in the source
[3] = test system: TERT-RPE1; assay: as §1; conditions: Culturing Media DMEM/F12 (1:1), 1 % Penicillin/Streptomycin, 10% Fetal bovin serum Add-On: No, Screening Media Control DMEM/F12 (1:1), Screening Media Samples DMEM/F12 (1:1)
[4] = Compound Concentration 0.5 uM, Timepoint 12 hours
[5] = Compound Concentration 0.5 uM, Timepoint 24 hours
[6] = Compound Concentration 0.5 uM, Timepoint 36 hours
[7] = Compound Concentration 0.5 uM, Timepoint 60 hours
[8] = Compound Concentration 2 uM, Timepoint 12 hours
[9] = Compound Concentration 2 uM, Timepoint 24 hours
[10] = Compound Concentration 2 uM, Timepoint 36 hours
[11] = Compound Concentration 2 uM, Timepoint 60 hours
[12] = Compound Concentration 10 uM, Timepoint 12 hours
[13] = Compound Concentration 10 uM, Timepoint 24 hours
[14] = Compound Concentration 10 uM, Timepoint 36 hours
[15] = Compound Concentration 10 uM, Timepoint 60 hours

Row | Compound | autophagy induction [1, 4] | autophagy induction [1, 5] | autophagy induction [1, 6] | autophagy induction [1, 7] | autophagy induction [1, 8] | autophagy induction [1, 9] | autophagy induction [1, 10] | autophagy induction [1, 11] | autophagy induction [1, 12] | autophagy induction [1, 13] | autophagy induction [1, 14] | autophagy induction [1, 15] | autophagy induction [2, 4] | autophagy induction [2, 5] | autophagy induction [2, 6] | autophagy induction [2, 7] | autophagy induction [2, 8] | autophagy induction [2, 9] | autophagy induction [2, 10] | autophagy induction [2, 11] | also measured
1 | CC(C)NCC(O)c1ccc(N)c(C#N)c1 (configuration not stated) [CIMATEROL] | 3.679% | -3.232% | -4.651% | -4.997% | 6.803% | -0.3028% | -4.0163% | -10.3459% | 5.959% | -4.01% | -7.491% | -4.33% | -8.937% | -2.541% | -0.28% | 0.09617% | -0.2215% | -0.03889% | 0.3661% | 0.1358% | autophagy induction [2, 12]: 14.0499%; autophagy induction [2, 13]: 5.045%; autophagy induction [2, 14]: 2.283%; autophagy induction [2, 15]: 0.5754%; autophagy induction [3, 4]: 2.2717%; autophagy induction [3, 5]: -0.618%; autophagy induction [3, 6]: -7.669%; autophagy induction [3, 7]: -22.0747%; autophagy induction [3, 8]: 9.171%; autophagy induction [3, 9]: 5.1156%; autophagy induction [3, 10]: 0.3735%; autophagy induction [3, 11]: -11.1579%; autophagy induction [3, 12]: 13.5821%; autophagy induction [3, 13]: 11.7661%; autophagy induction [3, 14]: 4.317%; autophagy induction [3, 15]: -0.2093%
2 | COc1ccccc1CN[C@H]1C2CCN(CC2)[C@H]1C(c1ccccc1)c1ccccc1 [CP-96345] | -3.495% | -5.808% | -2.326% | -4.4745% | 5.091% | 1.613% | -0.5186% | 0.7913% | 26.1721% | 19.1804% | 19.6555% | 18.5295% | 8.36% | 2.83% | 0.2431% | 0.5109% | -21.7864% | -9.531% | -7.223% | -5.938% | autophagy induction [2, 12]: -2.456%; autophagy induction [2, 13]: -0.4585%; autophagy induction [2, 14]: -0.2201%; autophagy induction [2, 15]: -2.05%; autophagy induction [3, 4]: -7.147%; autophagy induction [3, 5]: -11.4989%; autophagy induction [3, 6]: -14.454%; autophagy induction [3, 7]: -21.453%; autophagy induction [3, 8]: -6.616%; autophagy induction [3, 9]: -10.9647%; autophagy induction [3, 10]: -14.8934%; autophagy induction [3, 11]: -18.8514%; autophagy induction [3, 12]: 2.262%; autophagy induction [3, 13]: 3.387%; autophagy induction [3, 14]: 7.76%; autophagy induction [3, 15]: 2.279%

— ChEMBL document CHEMBL5724696, “Autophagy assay results for EUbOPEN Chemogenomics Library” (2024)
